The target in one data set is T1, BRD4 (BD1+BD2) (Homo sapiens, UniProt O60885).
T1 construct: 1.8 μg/ml recombinant BRD4 (BD1+BD2 domains) protein
Conditions: read-out: BRD4 Binding Potency.

A further data set concerns the target T2, BRD4 (Homo sapiens, UniProt O60885).
T2 construct: endogenous in cells; host or cells: MV4-11
Put plainly: BRD4 Degradation Flow Cytometry Assay in MV4-11 cells. The format is cell-based. The settings on record: 24 hr. How it is done: Protein Degradation Flow Cytometry
MV4-11 cells were plated in a 24-well tissue culture plate at a density of 350,000 cells/450 μL/well and incubated in 37° C./5% CO2 for 1 hr. Cells were then treated with compounds at various concentrations and incubated in 37° C./5% CO2 for 24 hr. Cells were harvested, washed once, counted and 200 μL of 1% paraformaldehyde/PBS was added and incubated for 15 min at room temperature. 200 μL of 1×PBS/0.4% Triton X-100 was added and incubated for 15 min at 4° C. Cells were washed three times and resuspended in 50 μL of 1×PBS/0.2% Triton X-100. 2 μL/10^6 cells of anti-BRD4 antibody (ABCAM, #128874) was added and mixed by pipetting up and down. Cells were incubated for 30 min at room temperature in the dark, washed three times and resuspended in 50 μL of 1×PBS/0.2% Triton X-100. Goat anti-rabbit IgG H&L antibody (1:2000 dilution) was added and mixed by pipetting up and down and incubated for 30 min at room temperature in the dark. Finally, cells were washed three times and resuspended in 200 μL of PBS for flow cytometric analysis.
(§1) % Inhibition=100−(D−B)/(S−B)*100%.
S: The fluorescence intensity of MV4-11 with antibody
D: The fluorescence intensity in the presence of different compound dilutions with antibody
B: The fluorescence intensity of MV4-11 only
On the technique in general: Flow cytometry measures light scatter and fluorescence of single cells or particles in a stream.

The next data set has as its target HSP90α (Homo sapiens, UniProt P07900). Put plainly: HSP90α Binding Fluorescent Polarization (FP) Assay. The settings on record: competition with FITC-geldanamycin; read-out: HSP90 Binding Potency. In a few lines: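 Duplicate wells held BSA buffer, FITC-geldanamycin tracer, compound (3-fold dilution plate spanning 40 μM–2.0 nM) and recombinant protein diluted to 28 μg/ml before addition. Polarization read at 30, 60 and 120 min, 25 °C. Background-corrected mP values gave IC50 through a four-parameter inhibitor-response fit.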

A further data set relates to MV4-11 cells. In words: MV4-11 Cell Cytotoxicity Assay. Format: cell-based, human. Conditions: human, MV4-11 cells, CCK-8.
Excerpt: as §1
S: The absorbance of the maximum (cells with DMSO)
B: The absorbance of the minimum (medium with DMSO)

The next data set deals with SU-DHL-4 xenograft. Put plainly: SU-DHL-4 DLBCL tumor xenograft study in mice. How it is done:
(§2) Tumor Xenograft Studies in Mice
(§3) 5×10^6 MV-4-11 or 1×10^7 SU-DHL-4 cells were collected and re-suspended in 0.1 mL of serum-free media with Matrigel (1:1 v/v) per mouse for subcutaneous inoculation in isoflurane anesthetized male BALB/c nude or C.B-17 scid mice, respectively (treated in accordance with AAALAC animal welfare guidelines). When the average tumor volumes reached 100-200 mm^3, tumor volume outliers were removed and the remaining animals randomly divided into groups of 6-8 with similar average tumor volumes in each group. […] Animals were intravenously dosed at 25 mg/kg, 50 mg/kg or 100 mg/kg 1×/week for 3 or 4 weeks. The appearance and behavior of each mouse was observed and recorded daily. Body weights and tumor volumes were measured and recorded every 2-4 days and the results were expressed as group means±SEM. Pairwise statistical comparisons between groups were performed by one-way ANOVA, and p<0.05 was considered statistically significant.

The subject of another data set is MV4-11 xenograft. Put plainly: MV4-11 AML tumor xenograft study in mice. How it is done:
as §2
as §3, with “MV4-11 acute myeloid leukemia and SU-DHL-4 diffuse large B-cell lymphoma (ATCC, #CRL-2957) cells were cultured in medium supplemented with 10% fetal bovine serum at 37° C./5% CO2. 5×10^6” for “5×10^6”, “Animals were intravenously dosed at 25 mg/kg, 50 mg/kg or 100 mg/kg 1×/week for 3 or 4 weeks.” left out

The mark [1] stands for this setting: 100 mg/kg intravenously 1×/week, after 4 weeks of dosing.

Regarding `Cc1sc2c(c1C)C(c1ccc(Cl)cc1)=N[C@H](CC(=O)N1CCC(CN3CCN(Cc4ccc(-n5c(O)nnc5-c5cc(C(C)C)c(O)cc5O)cc4)CC3)CC1)c1nnc(C)n1-2` [Compound 5, 2-((6R)-4-(4-chlorophenyl)-2,3,9-trimethyl-6H-thieno[3,2-f][1,2,4]triazolo[4,3-a][1,4]diazepin-6-yl)-1-(4-((4-(4-(3-(2,4-dihydroxy-5-isopropylphenyl)-5-hydroxy-4H-1,2,4-triazol-4-yl)benzyl)piperazin-1-yl)methyl)piperidin-1-yl)ethanone, trifluoroacetic acid], the IC50 on BRD4 (BD1+BD2) was > 1 µM; at HSP90α, 0.1 to 1 µM. At BRD4, the “BRD4 degradation in flow cytometry assay, in words” value (from here on “BRD4 degradation”) was “does not degrade BRD4”.
`Cc1sc2c(c1C)C(c1ccc(Cl)cc1)=N[C@@H](CC(=O)NCC(=O)NCC1CCN(C(=O)C3CCN(Cc4ccc(-n5c(O)nnc5-c5cc(C(C)C)c(O)cc5O)cc4)CC3)C1)c1nnc(C)n1-2` (stereo partly drawn) [Compound 47, 2-((S)-4-(4-chlorophenyl)-2,3,9-trimethyl-6H-thieno[3,2-f][1,2,4]triazolo[4,3-a][1,4]diazepin-6-yl)-N-(2-(((1-(1-(4-(3-(2,4-dihydroxy-5-isopropylphenyl)-5-hydroxy-4H-1,2,4-triazol-4-yl)benzyl)piperidine-4-carbonyl)pyrrolidin-3-yl)methyl)amino)-2-oxoethyl)acetamide, trifluoroacetic acid]: the IC50 on BRD4 (BD1+BD2) and at HSP90α was < 0.1 µM each time. For the same compound, the “degradation of BRD2, BRD3 and BRD4, in words” value on BRD4 (flow cytometry) was “only induced significant degradation of BRD4”. The IC50 at 72 h with MV4-11 cells is < 0.1 µM.
As to `CCc1cc(-c2nnc(C(=O)NCC(F)(F)F)n2-c2ccc(CN3CCN(CC4CCN(C(=O)C[C@@H]5N=C(c6ccc(Cl)cc6)c6c(sc(C)c6C)-n6c(C)nnc65)CC4)CC3)cc2)c(O)cc1O.Cl` [Compound 78, 4-(4-((4-((1-(2-((6S)-4-(4-chlorophenyl)-2,3,9-trimethyl-6H-thieno[3,2-f][1,2,4]triazolo[4,3-a][1,4]diazepin-6-yl)acetyl)piperidin-4-yl)methyl)piperazin-1-yl)methyl)phenyl)-5-(5-ethyl-2,4-dihydroxyphenyl)-N-(2,2,2-trifluoroethyl)-4H-1,2,4-triazole-3-carboxamide hydrochloride], at BRD4 (BD1+BD2), the IC50 is 0.1 to 1 µM. In the data set on SU-DHL-4 xenograft (setting [1]), the tumor growth inhibition result is on record as “significant tumor growth inhibition” and the “tumor vs control (T/C) value” is on record as 28%. In the data set with SU-DHL-4 xenograft (any dose level), the “animal deaths and body weights” value is reported as “No animal deaths or significant effects on body weights were observed”. In addition, the IC50 on HSP90α is 0.1 to 1 µM.
Take `CC(=O)N1CCC(CN2CCN(Cc3ccc(-n4c(O)nnc4-c4cc(C(C)C)c(O)cc4O)cc3)CC2)CC1` [HSP90 binder, 1-(4-((4-(4-(3-(2,4-dihydroxy-5-isopropylphenyl)-5-hydroxy-4H-1,2,4-triazol-4-yl)benzyl)piperazin-1-yl)methyl)piperidin-1-yl)ethan-1-one, reference compound]: the “BRD4 degradation” value on BRD4 is listed as “no substantial BRD4 degradation was observed”.
As for (+)-JQ1 [reference compound], the “BRD4 degradation” value at BRD4 is “no substantial BRD4 degradation was observed”. Also, the tumor growth inhibition result in the data set on MV4-11 xenograft (25 mg/kg intraperitoneal dosing 1×/day) is given as “moderate tumor growth inhibition”. For the same compound, the “animal deaths and body weights” value with MV4-11 xenograft (any group) is “No animal deaths or significant effects on body weights were observed”.
